Tests used:
Conditions in all cases: binder
BMPR1B = BMPR1B (Homo sapiens, UniProt O00238)
CSNK2A1 = CSNK2A1 (Homo sapiens, UniProt P68400)
JAK2 = JAK2 (Homo sapiens, UniProt O60674)
LRRK2 (G2019S) = LRRK2 (G2019S) (Homo sapiens, UniProt Q5S007, G2019S)
LRRK2 = LRRK2 (Homo sapiens, UniProt Q5S007)
NUAK1 = biological target: T1, NUAK1 (Homo sapiens, UniProt O60285)
T1 sequence (O60285 1-661): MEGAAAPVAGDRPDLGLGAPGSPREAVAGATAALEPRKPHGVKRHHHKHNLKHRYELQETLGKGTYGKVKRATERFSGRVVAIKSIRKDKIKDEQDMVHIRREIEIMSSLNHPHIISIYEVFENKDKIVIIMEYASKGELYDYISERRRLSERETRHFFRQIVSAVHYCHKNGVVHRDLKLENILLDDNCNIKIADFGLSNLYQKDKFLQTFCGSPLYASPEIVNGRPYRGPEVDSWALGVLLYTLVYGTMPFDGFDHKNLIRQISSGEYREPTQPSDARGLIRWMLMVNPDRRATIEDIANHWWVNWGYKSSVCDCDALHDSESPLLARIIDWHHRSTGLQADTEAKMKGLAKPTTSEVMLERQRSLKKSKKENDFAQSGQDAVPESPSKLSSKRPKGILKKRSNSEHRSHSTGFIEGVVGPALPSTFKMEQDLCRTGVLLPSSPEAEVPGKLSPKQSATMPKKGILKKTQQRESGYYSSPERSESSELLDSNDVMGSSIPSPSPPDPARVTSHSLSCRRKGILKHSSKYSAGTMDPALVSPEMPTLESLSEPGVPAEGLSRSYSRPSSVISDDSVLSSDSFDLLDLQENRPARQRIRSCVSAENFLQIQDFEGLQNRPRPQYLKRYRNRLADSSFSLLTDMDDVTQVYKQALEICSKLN

NUAK2 = biological target: T2, NUAK2 (Homo sapiens, UniProt Q9H093)
T2 sequence (Q9H093 1-628): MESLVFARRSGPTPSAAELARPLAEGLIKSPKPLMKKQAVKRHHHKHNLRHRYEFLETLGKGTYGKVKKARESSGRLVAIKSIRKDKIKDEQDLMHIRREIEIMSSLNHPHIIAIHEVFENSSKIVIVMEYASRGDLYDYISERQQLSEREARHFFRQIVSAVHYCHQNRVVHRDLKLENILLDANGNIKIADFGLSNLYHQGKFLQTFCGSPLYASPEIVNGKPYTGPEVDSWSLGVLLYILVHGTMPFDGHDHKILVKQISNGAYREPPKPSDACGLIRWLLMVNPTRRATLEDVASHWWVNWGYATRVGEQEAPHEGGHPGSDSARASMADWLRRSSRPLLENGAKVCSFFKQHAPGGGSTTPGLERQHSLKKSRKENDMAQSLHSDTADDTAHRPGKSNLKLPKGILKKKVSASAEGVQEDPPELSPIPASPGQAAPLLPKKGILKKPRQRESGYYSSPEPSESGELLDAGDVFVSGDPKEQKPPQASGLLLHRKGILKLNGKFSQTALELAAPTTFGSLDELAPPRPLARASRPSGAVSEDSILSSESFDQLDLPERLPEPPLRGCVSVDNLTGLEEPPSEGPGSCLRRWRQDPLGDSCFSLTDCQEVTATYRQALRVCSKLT

RIOK2 = RIOK2 (Homo sapiens, UniProt Q9BVS4)
Chain of RIOK2 (Q9BVS4 whole entry): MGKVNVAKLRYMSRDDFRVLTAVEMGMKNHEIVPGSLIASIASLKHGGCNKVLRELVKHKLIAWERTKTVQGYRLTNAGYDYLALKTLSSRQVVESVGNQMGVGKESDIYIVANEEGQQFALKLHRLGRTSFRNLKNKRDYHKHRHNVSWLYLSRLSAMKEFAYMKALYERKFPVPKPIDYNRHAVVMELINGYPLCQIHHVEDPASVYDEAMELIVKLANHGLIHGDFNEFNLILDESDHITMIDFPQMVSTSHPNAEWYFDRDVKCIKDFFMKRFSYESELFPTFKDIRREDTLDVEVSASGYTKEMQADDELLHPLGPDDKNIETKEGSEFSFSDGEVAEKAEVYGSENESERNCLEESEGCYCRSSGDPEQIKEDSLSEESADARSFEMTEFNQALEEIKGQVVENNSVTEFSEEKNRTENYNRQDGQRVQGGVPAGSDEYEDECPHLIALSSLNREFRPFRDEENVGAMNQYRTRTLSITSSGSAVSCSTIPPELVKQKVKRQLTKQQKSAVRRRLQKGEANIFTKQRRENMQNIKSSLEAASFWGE

STK3 (MST2) = biological target: T3, STK3 (MST2) (Homo sapiens, UniProt Q13188)
T3 sequence (Q13188 1-491): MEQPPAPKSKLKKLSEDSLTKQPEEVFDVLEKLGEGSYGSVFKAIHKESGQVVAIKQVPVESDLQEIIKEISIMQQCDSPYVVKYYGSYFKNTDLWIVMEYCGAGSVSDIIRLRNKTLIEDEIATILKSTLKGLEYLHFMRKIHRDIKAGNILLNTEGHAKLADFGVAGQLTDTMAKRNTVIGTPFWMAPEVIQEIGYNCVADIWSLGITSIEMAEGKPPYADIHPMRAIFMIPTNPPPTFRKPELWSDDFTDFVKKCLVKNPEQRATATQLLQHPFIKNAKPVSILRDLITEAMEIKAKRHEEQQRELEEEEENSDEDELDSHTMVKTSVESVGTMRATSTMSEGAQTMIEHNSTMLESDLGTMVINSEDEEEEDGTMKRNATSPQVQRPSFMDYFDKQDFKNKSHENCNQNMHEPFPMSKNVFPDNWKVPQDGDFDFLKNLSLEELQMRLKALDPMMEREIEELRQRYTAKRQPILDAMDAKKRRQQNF

TYK2 = TYK2 (Homo sapiens, UniProt P29597)

Chain of LRRK2 (G2019S) (Q5S007 whole entry G2019S): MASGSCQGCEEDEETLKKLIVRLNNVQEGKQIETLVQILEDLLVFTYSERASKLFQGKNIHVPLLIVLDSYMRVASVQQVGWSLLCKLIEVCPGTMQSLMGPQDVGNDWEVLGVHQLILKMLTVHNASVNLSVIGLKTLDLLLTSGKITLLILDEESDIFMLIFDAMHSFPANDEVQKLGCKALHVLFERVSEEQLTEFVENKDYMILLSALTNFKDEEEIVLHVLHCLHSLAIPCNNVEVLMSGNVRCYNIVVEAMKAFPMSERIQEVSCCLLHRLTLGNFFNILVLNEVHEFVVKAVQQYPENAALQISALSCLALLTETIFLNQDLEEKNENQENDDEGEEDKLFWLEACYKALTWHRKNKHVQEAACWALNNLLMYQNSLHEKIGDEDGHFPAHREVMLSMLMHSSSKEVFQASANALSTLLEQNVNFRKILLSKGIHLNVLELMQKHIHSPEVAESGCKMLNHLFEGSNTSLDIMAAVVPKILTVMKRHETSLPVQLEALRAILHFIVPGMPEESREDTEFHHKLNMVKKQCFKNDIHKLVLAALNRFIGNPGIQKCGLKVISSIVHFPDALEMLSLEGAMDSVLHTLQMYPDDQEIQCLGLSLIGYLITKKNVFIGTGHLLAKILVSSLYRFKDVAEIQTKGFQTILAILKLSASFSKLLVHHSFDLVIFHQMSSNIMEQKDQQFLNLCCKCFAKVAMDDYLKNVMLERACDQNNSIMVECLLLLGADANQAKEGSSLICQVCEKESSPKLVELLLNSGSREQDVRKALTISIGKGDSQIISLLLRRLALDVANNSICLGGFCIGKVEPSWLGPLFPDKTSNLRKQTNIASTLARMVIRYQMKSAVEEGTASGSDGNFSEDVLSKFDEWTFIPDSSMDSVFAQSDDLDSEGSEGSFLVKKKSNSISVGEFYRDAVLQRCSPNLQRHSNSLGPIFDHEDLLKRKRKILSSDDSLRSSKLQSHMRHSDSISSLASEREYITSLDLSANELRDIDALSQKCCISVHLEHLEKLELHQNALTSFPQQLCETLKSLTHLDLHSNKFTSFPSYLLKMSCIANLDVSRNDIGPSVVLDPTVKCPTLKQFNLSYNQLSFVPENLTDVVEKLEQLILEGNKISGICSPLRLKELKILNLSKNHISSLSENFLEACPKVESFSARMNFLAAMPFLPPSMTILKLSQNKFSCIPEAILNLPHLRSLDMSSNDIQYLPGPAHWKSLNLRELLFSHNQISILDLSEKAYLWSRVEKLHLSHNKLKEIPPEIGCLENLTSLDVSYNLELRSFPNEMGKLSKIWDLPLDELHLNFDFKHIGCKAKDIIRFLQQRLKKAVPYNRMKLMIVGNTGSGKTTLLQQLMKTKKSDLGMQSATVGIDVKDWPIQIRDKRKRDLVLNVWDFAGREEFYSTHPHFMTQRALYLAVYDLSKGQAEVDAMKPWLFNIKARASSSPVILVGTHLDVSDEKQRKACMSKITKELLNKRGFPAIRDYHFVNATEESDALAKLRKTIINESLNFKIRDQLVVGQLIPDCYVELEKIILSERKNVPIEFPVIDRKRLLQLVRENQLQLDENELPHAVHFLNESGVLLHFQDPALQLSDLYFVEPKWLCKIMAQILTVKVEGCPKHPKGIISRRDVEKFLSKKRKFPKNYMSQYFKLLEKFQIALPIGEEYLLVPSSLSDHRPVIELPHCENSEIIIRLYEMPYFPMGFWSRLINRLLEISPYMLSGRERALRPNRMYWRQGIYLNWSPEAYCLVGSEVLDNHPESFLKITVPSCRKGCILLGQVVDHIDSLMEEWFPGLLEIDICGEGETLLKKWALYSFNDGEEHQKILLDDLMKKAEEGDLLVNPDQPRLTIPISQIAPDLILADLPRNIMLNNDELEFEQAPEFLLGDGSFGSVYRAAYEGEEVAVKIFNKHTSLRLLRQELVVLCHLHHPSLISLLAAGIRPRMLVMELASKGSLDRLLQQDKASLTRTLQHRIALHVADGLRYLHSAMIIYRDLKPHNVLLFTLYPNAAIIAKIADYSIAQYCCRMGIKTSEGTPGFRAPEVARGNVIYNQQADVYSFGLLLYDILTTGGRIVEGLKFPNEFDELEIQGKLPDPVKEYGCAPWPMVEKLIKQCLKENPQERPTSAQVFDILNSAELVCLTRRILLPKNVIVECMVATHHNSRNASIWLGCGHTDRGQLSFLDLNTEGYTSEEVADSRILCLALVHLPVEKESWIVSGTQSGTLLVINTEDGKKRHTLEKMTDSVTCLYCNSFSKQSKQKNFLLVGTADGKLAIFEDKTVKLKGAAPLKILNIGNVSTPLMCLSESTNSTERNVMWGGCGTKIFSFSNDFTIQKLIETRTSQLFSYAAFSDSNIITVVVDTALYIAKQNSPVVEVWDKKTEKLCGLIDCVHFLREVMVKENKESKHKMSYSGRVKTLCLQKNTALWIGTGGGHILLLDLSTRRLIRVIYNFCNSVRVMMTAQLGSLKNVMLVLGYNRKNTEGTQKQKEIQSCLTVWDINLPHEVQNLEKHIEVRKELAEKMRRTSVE
Chain of JAK2 (O60674 whole entry): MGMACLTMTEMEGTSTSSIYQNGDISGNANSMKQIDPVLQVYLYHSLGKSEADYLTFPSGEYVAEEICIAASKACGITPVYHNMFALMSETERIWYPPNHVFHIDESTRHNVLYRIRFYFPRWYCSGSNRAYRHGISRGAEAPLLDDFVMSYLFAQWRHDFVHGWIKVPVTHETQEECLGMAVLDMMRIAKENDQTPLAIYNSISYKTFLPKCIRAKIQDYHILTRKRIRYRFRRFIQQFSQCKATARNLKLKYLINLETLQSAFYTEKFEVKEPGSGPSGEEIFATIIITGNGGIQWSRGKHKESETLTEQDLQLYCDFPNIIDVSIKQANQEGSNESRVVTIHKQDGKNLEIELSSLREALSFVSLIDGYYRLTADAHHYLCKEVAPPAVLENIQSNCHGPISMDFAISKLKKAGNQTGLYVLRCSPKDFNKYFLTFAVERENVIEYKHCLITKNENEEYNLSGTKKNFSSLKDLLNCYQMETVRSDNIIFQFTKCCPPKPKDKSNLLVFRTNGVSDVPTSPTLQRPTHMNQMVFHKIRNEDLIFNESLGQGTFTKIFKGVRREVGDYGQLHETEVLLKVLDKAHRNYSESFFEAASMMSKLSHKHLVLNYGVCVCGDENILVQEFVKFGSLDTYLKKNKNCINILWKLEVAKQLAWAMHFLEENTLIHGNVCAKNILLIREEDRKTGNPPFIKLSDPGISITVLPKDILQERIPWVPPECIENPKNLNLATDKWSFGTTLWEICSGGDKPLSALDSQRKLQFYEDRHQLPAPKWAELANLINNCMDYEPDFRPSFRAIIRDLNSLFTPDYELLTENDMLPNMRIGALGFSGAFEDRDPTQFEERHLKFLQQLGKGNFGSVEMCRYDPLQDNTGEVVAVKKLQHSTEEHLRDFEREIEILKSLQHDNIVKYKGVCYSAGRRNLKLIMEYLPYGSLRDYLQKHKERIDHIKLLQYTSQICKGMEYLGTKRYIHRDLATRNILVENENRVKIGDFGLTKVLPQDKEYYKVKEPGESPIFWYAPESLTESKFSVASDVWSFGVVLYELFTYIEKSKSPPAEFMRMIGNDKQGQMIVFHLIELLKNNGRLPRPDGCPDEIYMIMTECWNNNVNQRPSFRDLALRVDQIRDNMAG
Chain of LRRK2 (Q5S007 whole entry): as the sequence (Q5S007 whole entry G2019S) above, with S2019G counted along it
Chain of BMPR1B (O00238 whole entry): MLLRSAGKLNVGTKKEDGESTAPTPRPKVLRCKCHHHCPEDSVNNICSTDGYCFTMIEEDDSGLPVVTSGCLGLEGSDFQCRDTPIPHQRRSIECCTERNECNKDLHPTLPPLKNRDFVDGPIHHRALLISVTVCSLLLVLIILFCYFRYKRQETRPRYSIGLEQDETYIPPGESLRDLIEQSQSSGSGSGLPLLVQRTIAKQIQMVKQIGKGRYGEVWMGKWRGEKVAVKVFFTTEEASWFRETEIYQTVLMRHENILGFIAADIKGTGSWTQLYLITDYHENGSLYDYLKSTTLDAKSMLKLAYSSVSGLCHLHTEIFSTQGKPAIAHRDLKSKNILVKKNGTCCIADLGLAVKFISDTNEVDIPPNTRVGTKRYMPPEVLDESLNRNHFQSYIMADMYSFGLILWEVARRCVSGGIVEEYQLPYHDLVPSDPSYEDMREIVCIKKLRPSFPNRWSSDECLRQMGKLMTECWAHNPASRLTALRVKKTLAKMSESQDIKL

## C[C@H](NC(=O)c1c[nH]c2ncc(C3CC3)nc12)C(C)(C)C [A1, UNC-BE4-017]
BMPR1B
  Compound A1 PoC: 1.8%
CSNK2A1
  Compound A1 PoC: 0%
JAK2
  Compound A1 PoC: 0.4%
LRRK2 (G2019S)
  Compound A1 PoC: 7.5%
LRRK2
  Compound A1 PoC: 2.1%
NUAK1
  Compound A1 PoC: 4.1%
NUAK2
  Compound A1 PoC: 1.2%
RIOK2
  Compound A1 PoC: 0%
STK3 (MST2)
  Compound A1 PoC: 0%
TYK2
  Compound A1 PoC: 6.9%
